# Test results: US6677307B2, “TGF-α polypeptides, functional fragments and methods of use therefor” (Kaleidos Pharma, Inc., priority 1999, dated 2004)
# What was measured:
# [1] = test system: immune cells (T cell lineage), mast cells; experiment: immune cells, mast cells and cytokines in vivo after CP; parameters: species or system mice; details: mice after immune-suppression by CP; lymphoid tissue, Peyers Patches, spleen
# Source text: The stimulated immune cells were phenotypically identified as CD4 positive T cells and double null CD4 negative CD8 negative T cell progenitors. […] The in vivo activity of TGFα (and the functional peptides of formula I, formula II, formula III, and formula IV) to stimulate early T cell progenitors in the release of TH-1 and TH-2 cytokines and this regulation of immune phenomena. The stimulation of select immune cells, in particular cells of a T cell lineage, was seen consistently in the mice who received CP and TGF-α57 in lymphoid tissue, Peyers Patches and the spleen. Further, recruitment of help via CD4 cells in some cases boosts immune system function in general.
# This is a parallel activity that is in addition to the gastrointestinal anti-inflammatory activity and prevention of mucositis of TGFα (and the functional peptides of formula I, formula II, formula III, and […]) described herein.
# [2] = test system: human CD34 positive and CD38 negative cells; experiment: liquid primary culture of human bone-marrow enriched CD34 cells; format: cell-based
# Method: An additional experiment investigated TGF-α activity (using TGF-α57) on human bone-marrow enriched CD34 cells. FACS-sorted human CD34 positive and CD38 negative cells were cultured in liquid primary cultures in Iscove's modified Dulbecco's media with supplements. […] Stem Cell Factor (SCF) was used as a positive control (500 ng/ml) and provided a three-fold increase in CD34 positive cells. When a combination of SCF (500 ng/ml) and TGFα (10 ng/ml) was added, a synergistic 12-fold increase in CD34 positive cells was observed.
# [3] = test system: kidney tissue (primarily glomeruli); experiment: Cis-platinum kidney damage, H&E kidney histology; format: in vivo; details: mice; CP 10 mg/kg ip; 10 μg/kg 6 hours prior to CP and 24 and 48 hours after CP
# Method: In addition, administration of a TGF-α polypeptide, fragments, and mimetic to regenerate damaged tissue, for example, in kidney, an organ sensitive to such damage, is also disclosed herein. In an in vivo experiment, mice were administered 10 mg/kg of Cis-platinum as a single ip injection and treated mice administered 10 μg/kg a human TGF-α57 (R&D Systems, Minneapolis, Minn.). TGF-α57 was administered just before CP and in two additional doses after, by ip administration for a general systemic effect. Several organs or tissues were collected from the animals sacrificed 4 days after CP dose (or saline for no TGFα57) and tissues were examined histologically.
# The cuboidal epithelium of the proximal convuluted tubule was also damaged.
# [4] = test system: mouse spleen; experiment: in vivo model of general hematopoiesis with Cis Platinum (spleen weights, platelets, spleen histology)
# Method: Hematopoietic and myeloid cells are red blood cell precursors, platelet precursors (megakaryocytes), and immune (white) blood cell precursors of various forms of T cells, B cells and macrophages. […] It should be noted that references to TGF-α as a human 50 amino acid polypeptide further include reference to human TGFα57 as an alternative variant.
# The experiment procedure dosed those animals to be treated with TGFα 57 4 hours prior to challenge with CP. A single dose of CP was administered. Additional doses (as indicated) of TGFα 57 were made at 24 hours, 48 hours, 72 hours and 96 hours after the CP dose. All doses were made by IP injection. Controls were dosed with saline instead of either or both of CP and TGF-α57.
# The animals were sacrificed about 4 hours after the last TGF-α57 (or saline) dose. Key organs were removed and spleens were immediately weighed after a clean incision. All the relevant organs were placed in formalin, transported for histopathological analysis, mounted, sectioned, stained and observed. The results of this histological analysis of the spleens for hematopoietic effect and the GI tract (below) provided surprising and unexpected data of the effect of TGF-α57 activity.
# There was erythrocytes in the perifollicular zone surrounding both the T cell and B cell compartments of white pulp. […] The T cells stained for the T-cell receptor but were negative for CD4 and CD8 markers. Accordingly, the T-cells are double null T-cell progenitors induced by TGF-α administration.
# [5] = test system: lymphoid tissues such as spleen and the large intestine; experiment: histological examination of lymphoid tissues after TGF-α57; format: in vivo; details: mice; 10-50 μg/kg ip 3 days or 10-50 μg/kg iv 2 days or 10 μg/kg sc 3-5 days; vs untreated mice
# Source text: In still another embodiment, a TGF-α polypeptide, a related polypeptide, mimetic, or functional fragment thereof having TGF-α activity are useful as vaccine adjuvants to increase mucosal humoral immunity. […] Such T cell progenitors positioned in the gastrointestinal tract represent a reservoir for CD4 helper cells needed against mucosal directed vaccine production mediated by priming with exogenous antigen. The T cell progenitor cells appear to be double null and thus naive. Accordingly, the T cell progenitor cell response to TGF-α and TGF-α mimetics provides the utility for such compounds to provide a strong mucosal immunity response and usefulness as a mucosal vaccine and as a universal stem cell adjuvant.
# [6] = test system: kidney; experiment: gentamicin chronic kidney toxicity, blood BUN and creatinine; format: in vivo, CD-1 mice; details: gentamicin sulfate 80 mg/kg sc every 24 hours; 1 μg ip every 24 hours; two weeks
# Method: In another set of in vivo experiments, gentamicin (antibiotic having dose-limiting kidney toxicity side effects) was used as the cytotoxic agent for a chronic cytotoxic agent. Eight CD-1 mice were weighed and injected subcutaneously with 80 mg/kg of gentamicin sulfate. Four of the mice were controls and injected with 0.1 ml of 0.9% saline and the other four injected ip with 0.1 ml of 10 μg/ml stock of TGF-α (57 aa polypeptide) as a 1 μg dose. The mice were reinjected with the same does of saline or TGF-α every 24 hours and every 24 hours subcutaneously with the same does of gentamicin. After two weeks of treatment, the mice were sacrificed and blood BUN and creatinine were measured and the kidneys examined. The average creatinine values were 0.49±0.096 for controls and 0.34±0.042 for treated mice. The average BUN values were 36.1±4.8 for controls and 35.5±4.9 for treated mice.
# [7] = test system: kidney; experiment: glycerol acute kidney toxicity, blood BUN and creatinine; format: in vivo, CD-1 mice; details: 50% glycerol 10 ml/kg im; 1 μg ip; two treatments
# Method: In another set of in vivo experiments, glycerol (50% (v/v) aqueous solution, Sigma) was used as the cytotoxic agent for an acute cytotoxic agent. Six CD-1 mice were weighed and injected into both hind limbs im with 10 ml/kg of 50% (v/v) glycerol, one half into each hind limb im. Three of the mice were controls and injected with 0.1 ml of 0.9% saline and the other three injected ip with 0.1 ml of 10 μg/ml stock of TGF-α (57 aa polypeptide) as a 1 μg dose. The mice were reinjected with the same does of saline or TGFα the next day and another equal dose of 50% glycerol. After two treatments, the mice were sacrificed and blood BUN and creatinine was measured and the kidneys examined. The average creatinine values were 1.75±0.613 for controls and 1.51±0.940 for treated mice. The average BUN values were […] for controls and 165.3±75.6 for treated mice.
substance,measurement,setting,value
TGF-α57: 57 amino acid polypeptide of formula VI: Ser-Leu-Ser-Leu-Pro-Ala-Met-Human TGFα,proliferation of select immune cells (T cell lineage),[1],stimulation of proliferation of select immune cells
same,increase in CD34 positive progenitor cells,"[2]; added alone, 10 ng/ml",35%
same,proliferation of dendritic precursor cells,[2]; treated cultures,stimulation of the proliferation of dendritic precursor cells
same,glomeruli damage (H&E kidney histology),[3],essentially protected the glomeruli from damage
same,spleen weights,"[4]; CP 5 mg/kg or 10 mg/kg, 10 μg/kg or 50 μg/kg IP, FIG. 3",return to normal spleen weights
same,spleen histology (H&E),[4]; CP 10 mg/kg and 50 μg/kg,increased number of T cells and erythrocytes in the perifollicular zone
same,platelet counts,"[4]; with CP, as opposed to CP alone",higher
same,T cell progenitor cells (histology),[5],increase in T cell progenitor cells
same,average BUN,[6],35.5±4.9
same,average creatinine,[6],0.34±0.042
same,average BUN,[7],165.3±75.6
same,average creatinine,[7],1.51±0.940
